Assay: Saturated solubility at 23° C. of each dichroic dye in certain solvents (LC quantification)
Type: physicochemical
Details: 24 hours agitation; for saturated solubility in ethanol: solvent ethanol; for saturated solubility in ethyl acetate: solvent ethyl acetate; for saturated solubility in isopropyl alcohol: solvent isopropyl alcohol; for saturated solubility in methanol: solvent methanol; for saturated solubility in propylene glycol 1-monomethyl ether 2-acetate: solvent propylene glycol 1-monomethyl ether 2-acetate; for saturated solubility in propylene glycol 1-monomethyl ether: solvent propylene glycol 1-monomethyl ether; for saturated solubility in tetrahydrofuran: solvent tetrahydrofuran
Experimental: [Measurement Method of Saturated Solubility]
This solution was sampled, and was dissolved together with 5 ml of a standard liquid in tetrahydrofuran to prepare a measurement solution. […] The standard liquid was prepared from 10 ml of hexylbenzene and 1000 ml of acetonitrile.
The liquid chromatograph (LC) measurement was carried out in the following condition.
Used column: KinetexC18, 2.6 μm, 100 mm×4.6 mm diameter
Column temperature: 40° C.
• (A liquid) 0.1%(v/v)—TFA/water • (B liquid) 0.1%(v/v)—TFA/acetonitrile 500/THF 50% • Gradient condition 0 min A liquid 60%, B liquid 40% • 30 min A liquid 0%, B liquid 100% • 35 min A liquid 0%, B liquid 100% • 35.1 min A liquid 60%, B liquid 40% • 45 min STOP TOTAL 45 min • Flow volume: 1.0 mL/min • Injection amount: 5 μL • Detection method: UV (254 nm)

Compound | saturated solubility in ethanol [% by mass] | saturated solubility in ethyl acetate [% by mass] | saturated solubility in isopropyl alcohol [% by mass] | saturated solubility in methanol [% by mass] | saturated solubility in propylene glycol 1-monomethyl ether 2-acetate [% by mass] | saturated solubility in propylene glycol 1-monomethyl ether [% by mass] | saturated solubility in tetrahydrofuran [% by mass]
CCCCc1ccc(N=Nc2ccc(N=Nc3ccc(OCCC)cc3)cc2)cc1 [dichroic dye 2] | 0.001 | 1.3 | 0.043 | 0.001 | 0.89 | 0.336 | 4.5
CCCCc1ccc(N=Nc2ccc(N=Nc3ccc(N4CCCC4)cc3)cc2)cc1 [dichroic dye 1] | 0.003 | 0.059 | 0.002 | 0.001 | 0.077 | 0.028 | 0.33
